Here are results for 26 compounds from patent US20150011751A1, “NOVEL TRIAZINE DERIVATIVE” (CARNA BIOSCIENCES, INC., priority 2012, published 2015).

The target of this test is Dephosphorylated BTK (Homo sapiens, UniProt Q06187). Put plainly: Test of activity inhibition against dephosphorylated BTK (mobility shift assay).
Chain of Dephosphorylated BTK (Q06187 whole entry): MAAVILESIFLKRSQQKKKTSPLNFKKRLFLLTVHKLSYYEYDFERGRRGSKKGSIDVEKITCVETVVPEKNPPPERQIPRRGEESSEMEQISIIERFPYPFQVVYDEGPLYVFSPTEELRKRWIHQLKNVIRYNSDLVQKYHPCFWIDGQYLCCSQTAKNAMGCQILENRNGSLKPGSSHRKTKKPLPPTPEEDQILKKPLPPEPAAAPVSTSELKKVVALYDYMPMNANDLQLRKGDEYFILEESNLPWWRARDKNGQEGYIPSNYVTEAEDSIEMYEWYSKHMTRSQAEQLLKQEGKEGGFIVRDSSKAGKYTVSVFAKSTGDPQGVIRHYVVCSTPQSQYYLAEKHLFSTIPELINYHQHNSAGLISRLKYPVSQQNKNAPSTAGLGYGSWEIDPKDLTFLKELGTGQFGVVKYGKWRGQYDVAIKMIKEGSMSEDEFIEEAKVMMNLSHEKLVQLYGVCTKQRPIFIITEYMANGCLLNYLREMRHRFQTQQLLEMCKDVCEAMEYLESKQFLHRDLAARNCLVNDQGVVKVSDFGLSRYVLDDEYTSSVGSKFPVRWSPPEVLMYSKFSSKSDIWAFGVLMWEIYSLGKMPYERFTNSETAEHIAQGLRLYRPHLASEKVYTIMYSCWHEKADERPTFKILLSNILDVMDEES

In the case of `Nc1nc(Nc2cnn(CC(F)(F)F)c2)nc(-c2cccc(N3CCc4cc(C5CC5)cc(F)c4C3=O)c2CO)n1` [Example 240, 2-[3-(4-Amino-6-{[1-(2,2,2-trifluoroethyl)-1H-pyrazol-4-yl]amino}-1,3,5-triazin-2-yl)-2-(hydroxymethyl)phe-nyl]-6-cyclopropyl-8-fluoro-3,4-dihydroiso-quinolin-1(2H)-one], the IC50 (as a rule, the concentration at which inhibition is half-maximal) turned out to be 1.1 nM.
With `Cc1c(NC(=O)c2ccc(C(C)(C)C)cc2)cccc1-c1nc(N)nc(Nc2ccc(N3CCC(O)CC3)cc2)n1` [Example 87, N-[3-(4-Amino-6-{[4-(4-hydroxypiperidin-1-yl)phenyl]amino}-1,3,5-triazin-2-yl)-2-meth-ylphenyl]-4-(tert-butyl)benzamide] the figure was 1.4 nM.
With `CC(C)(C#N)c1cc(F)c2c(c1)CCN(c1cccc(-c3nc(N)nc(Nc4cn[nH]c4)n3)c1CO)C2=O` [Example 206, 2-[2-(3-{4-[(1H-Pyrazol-4-yl)amino]-6-amino-1,3,5-triazin-2-yl}-2-(hydroxymethyl)phe-nyl)-8-fluoro-1-oxo-1,2,3,4-tetrahydro-isoquinolin-6-yl]-2-meth-ylpropanenitrile] the figure was 1 nM; with `CCN(CC)c1ccc(Nc2nc(N)nc(-c3cccc(N4CCc5cc(C6CC6)cc(F)c5C4=O)c3CO)n2)cc1` [Example 245, 2-[3-(4-Amino-6-{[4-(di-ethylamino)phenyl]a-mino}-1,3,5-triazin-2-yl)-2-(hydroxymethyl)phenyl]-6-cyclopropyl-8-fluoro-3,4-dihydro-isoquinolin-1(2H)-one], 5.6 nM; with `CC(C)(C)c1ccc(C(=O)Nc2cccc(-c3nc(N)nc(Nc4ccc(N5CCOC(CO)C5)cc4)n3)c2CO)cc1` (centres unmarked) [Example 106, N-{3-[4-Amino--({4-[2-(hydroxymethyl)morpho-lino]phenyl}amino)-1,3,5-triazin-2-yl]-2-(hydroxymethyl)phenyl}-4-(tert-butyl)benzamide], 0.7 nM.
As to `Nc1nc(Nc2cnn(CC(F)F)c2)nc(-c2cccc(N3CCc4cc(C5CC5)cc(F)c4C3=O)c2CO)n1` [Example 275, 2-[3-(4-Amino-6-{[1-(2,2-difluoroethyl)-1H-pyrazol-4-yl]amino}-1,3,5-triazin-2-yl)-2-(hydroxymethyl)phenyl]-6-cyclopropyl-8-fluoro-3,4-dihydroisoquinolin-1(2H)-one], the 50% inhibitory concentration (IC50) is 1.7 nM.
With `CC(C)(C)c1ccc(C(=O)Nc2cccc(-c3nc(N)nc(Nc4ccc5c(c4)ncn5CCCO)n3)c2CO)cc1` [Example 155, N-[3-(4-Amino-6-{[1-(3-hydroxypropyl)-1H-benzo[d]imidazol-5-yl]amino}-1,3,5-triazin-2-yl)-2-(hydroxymeth-yl)phenyl]-4-(tert-butyl)benzamide] the figure was 0.8 nM.
With `CC(C)(C)c1ccc(C(=O)Nc2cccc(-c3nc(N)nc(Nc4ccc(-n5ccnc5)cc4)n3)c2CO)cc1` [Example 185, N-[3-(4-{[4-(1H-Imida-zol-1-yl)phenyl]amino}-6-amino-1,3,5-triazin-2-yl)-2-(hydroxymeth-yl)phenyl]-4-(tert-butyl)benzamide] the figure was 1.2 nM.
Turning to `Cc1c(NC(=O)c2ccc(C(C)(C)C)cc2)cccc1-c1nc(N)nc(Nc2ccc(N3CCOC(CO)C3)cc2)n1` (centres unmarked) [Example 92, N-{3-[4-Amino-6-({4-[2-(hydroxymethyl)morpho-lin]phenyl}amino)-1,3,5-triazin-2-yl]-2-methylphenyl}-4-(tert-butyl)benzamide], the IC50 was 0.9 nM.
`Cc1c(NC(=O)c2ccc(C(C)(C)C)cc2)cccc1-c1ncnc(Nc2ccc(CN3CCOCC3)cc2)n1` [Example 25, 4-(tert-Butyl)-N-[2-meth-yl-3-(4-{[4-(morpho-linomethyl)phenyl]ami-no}-1,3,5-triazin-2-yl)phenyl]benzamide]: the IC50 was found to be 3.5 nM.
As to `Nc1nc(Nc2ccc(N3CCN(C=O)CC3)cc2)nc(-c2cccc(N3CCc4cc(C5CC5)cc(F)c4C3=O)c2CO)n1` [Example 189, 4-[4-({4-Amino-6-[3-(6-cyclopropyl-8-fluoro-1-oxo-3,4-dihydroiso-quinolin-2(1H)-yl)-2-(hydroxymethyl)phenyl]-1,3,5-triazin-2-yl}amino)phenyl]pipera-zine-1-carbaldehyde], the IC50 turned out to be 1.2 nM.
With `Nc1nc(Nc2ccc(N3CCOCC3)cc2)nc(-c2cccc(NC(=O)c3cc4c(s3)CCC4)c2CO)n1` [Example 175, N-(3-{4-Amino-6-[(4-morpholinophenyl)amino]-1,3,5-triazin-2-yl}-2-(hydroxymethyl)phe-nyl)-5,6-dihydro-4H-cyclopenta[b]thiophene-2-carboxamide] the figure was 3.6 nM; with `CC1CCc2sc(C(=O)Nc3cccc(-c4nc(N)nc(Nc5ccc(N6CCOCC6)cc5)n4)c3CO)cc2C1` (centres unmarked) [Example 139, N-(3-{4-Amino-6-[(4-morpholinophenyl)amino]-1,3,5-triazin-2-yl}-2-(hydroxymethyl)phe-nyl)-5-methyl-4,5,6,7-tetrahydrobenzo[b] thiophene-2-carboxamide], 1.6 nM.
As to `Nc1nc(Nc2cnn([C@@H]3CCOC3)c2)nc(-c2cccc(N3CCc4cc(C5CC5)cc(F)c4C3=O)c2CO)n1` [Example 236, (R)-2-[3-(4-Amino-6-{[1-(tetrahydrofuran-3-yl)-1H-pyrazol-4-yl]amino}-1,3,5-triazin-2-yl)-2-(hydroxymeth-yl)phenyl]-6-cyclopropyl-8-fluoro-3,4-dihydro-isoquinolin-1(2H)-one], the half-inhibitory concentration (IC50) amounted to 0.8 nM.
Turning to `Nc1nc(Nc2ccc(N3CCOCC3)cc2)nc(-c2cccc(NC(=O)c3ccc(C(F)(F)F)cc3)c2CO)n1` [Example 168, N-(3-{4-Amino-6-[(4-morpholinophenyl)amino]-1,3,5-triazin-2-yl}-2-(hydroxymethyl)phe-nyl)-4-(trifluorometh-yl)benzamide], the IC50 was determined as 17.6 nM.
With `Cc1cc(Nc2nc(N)nc(-c3cccc(NC(=O)c4ccc(C(C)(C)C)cc4)c3CO)n2)ccc1O` [Example 117, N-(3-{4-Amino-6-[(4-hy-droxy-3-methylphenyl)amino]-1,3,5-triazin-2-yl)-2-(hydroxymeth-yl)phenyl)-4-(tert-butyl)benzamide] the figure was 0.9 nM; with `Nc1nc(Nc2ccn([C@@H]3CCOC3)c2)nc(-c2cccc(N3CCc4cc(C5CC5)cc(F)c4C3=O)c2CO)n1` [Example 250, (R)-2-[3-(4-Amino-6-{[1-(tetrahydrofuran-3-yl)-1H-pyrrol-3-yl]ami-no}-1,3,5-triazin-2-yl)-2-(hydroyxmethyl)phenyl]-6-cyclopropyl-8-fluoro-3,4-dihydro-isoquinolin-1(2H)-one], 1.5 nM.
As to `Cc1c(NC(=O)c2ccc(C(C)(C)C)cc2)cccc1-c1nc(N)nc(Nc2ccc(N3CCN(CCO)CC3)cc2)n1` [Example 93, N-{3-[4-Amino-6-({4-[4-(2-hydroxyethyl)piperazin-1-yl]phenyl}ami-no)-1,3,5-triazin-2-yl]-2-methylphenyl}-4-(tert-butyl)benzamide], the IC50 came to 1.3 nM.
With `CC(C)(C)c1ccc(C(=O)Nc2cccc(-c3nc(N)nc(Nc4ccc(NS(C)(=O)=O)cc4)n3)c2CO)cc1` [Example 112, N-[3-(4-Amino-6-{[4-(meth-ylsulfonamido)phe-nyl]amino}-1,3,5-tria-zin-2-yl)-2-(hydroxymeth-yl)phenyl]-4-(tert-butyl)benzamide] the figure was 1.1 nM.
On to `CN1CCC(n2cc(Nc3nc(N)nc(-c4cccc(N5CCc6cc(C7CC7)cc(F)c6C5=O)c4CO)n3)cn2)CC1` [Example 252, 2-[3-(4-Amino-6-{[1-(1-methylpiperidin-4-yl)-1H-pyrazol-4-yl]ami-no}-1,3,5-triazin-2-yl)-2-(hydroxymethyl)phenyl]-6-cyclopropyl-8-fluoro-3,4-dihydro-isoquinolin-1(2H)-one], for which the IC50 stood at 0.8 nM.
`CC(C)(C)c1ccc(C(=O)Nc2cccc(-c3nc(N)nc(Nc4ccc(OCCOCCO)cc4)n3)c2CO)cc1` [Example 151, N-{3-[4-Amino-6-({4-[2-(2-hydroxyethoxy)eth-oxy]phenyl}amino)-1,3,5-triazin-2-yl]-2-(hy-droxymethyl)phenyl}-4-(tert-butyl)benzamide]: the IC50 was 1.3 nM.
With `CCCn1cc(Nc2nc(N)nc(-c3cccc(N4CCc5cc(C6CC6)cc(F)c5C4=O)c3CO)n2)cn1` [Example 262, 2-(3-{4-Amino-6-[(1-pro-pyl-1H-pyrazol-4-yl)amino]-1,3,5-triazin-2-yl}-2-(hydroxymeth-yl)phenyl)-6-cyclopro-pyl-8-fluoro-3,4-dihy-droisoquinolin-1(2H)-one] the figure was 0.8 nM.
With `CC(C)(C)c1ccc(C(=O)Nc2cccc(-c3nc(N)nc(Nc4ccc(N5CCC(O)CC5)cc4)n3)c2CO)cc1` [Example 107, N-[3-(4-Amino-6-{[4-(4-hydroxypiperidin-1-yl)phenyl]amino}-1,3,5-triazin-2-yl)-2-(hy-droxymethyl)phenyl]-4-(tert-butyl)benzamide] the figure was 0.8 nM.
With `CCOC(=O)c1cc(Nc2nc(N)nc(-c3cccc(N4CCc5cc(C6CC6)cc(F)c5C4=O)c3CO)n2)cn1C` [Example 219, Ethyl 4-({4-amino-6-[3-(6-cyclo-propyl-8-fluoro-1-oxo-3,4-dihydroisoquinolin-2(1H)-yl)-2-(hydroxy-methyl)phenyl]-1,3,5-triazin-2-yl}ami-no)-1-methyl-1H-pyrrole-2-carboxylate], the IC50 is 0.8 nM.
As to `Cc1c(NC(=O)c2cc3c(s2)CCCC3)cccc1-c1nc(N)nc(Nc2ccc(C(=O)N3CCOCC3)cc2)n1` [Example 66, N-[3-(4-Amino-6-{[4-(morpho-line-4-carbonyl)phenyl]amino}-1,3,5-triazin-2-yl)-2-methyl-phenyl]-4,5,6,7-tetra-hydrobenzo[b]thiophene-2-carboxamide], the half-inhibitory concentration (IC50) was 3.2 nM.
Take `Nc1nc(Nc2cnn(CC(=O)N3CCCC3)c2)nc(-c2cccc(N3CCc4cc(C5CC5)cc(F)c4C3=O)c2CO)n1` [Example 260, 2-{3-[4-Amino-6-({1-[2-oxo-2-(pyrrolidin-1-yl)ethyl]-1H-pyrazol-4-yl}amino)-1,3,5-tri-azin-2-yl]-2-(hydroxy-methyl)phenyl}-6-cyclo-propyl-8-fluoro-3,4-dihydroisoquinolin-1 (2H)-one]: the IC50 stood at 0.9 nM.
